Reference: US20180215784A1, “METHOD FOR PREPARATION OF N-ACYL PEPTIDES, POLYPEPTIDES AND PROTEINS” (NEODEL TEC LTD., priority 2015, published 2018)
≈ marks a conversion by molar mass, not a printed value. Where two headings read alike, the source gives them in different places.

Legend:
[1] = cited from earlier work
[2] = system: human skin fibroblast cell line CRL1121; experiment: Stimulation of pro-collagen synthesis/secretion in cultured human skin fibroblasts (immunoblotting, densitometry); format: cell-based; conditions: for pro-collagen synthesis/secretion: serum-free medium with sodium ascorbate and 0.5% ethanol, vs control carrier, immunoblot FIG. 1
Method: The effect of N-octanoyl-Gly-Pro (also referred to herein as OGP) prepared in Example 2 on intracellular synthesis of pro-collagen, the precursor of collagen, was tested. OGP was applied from a 250 mg/ml stock solution in ethanol. The composition of the solute, estimated by thin layer chromatography, was 80% OGP, 15% nicotinamide and 5% octanoic acid.
The human skin fibroblast cell line CRL1121, obtained from ATCC (American Type Culture Collection), was used for monitoring pro-collagen synthesis. Cells were grown in high glucose-DMEM containing 10% Fetal Calf Serum and antibiotics (streptomycin and penicillin). Confluent cells were suspended and inoculated into wells in 96-well microplates at 7,500 cells/well. At confluency, the cells were placed on fresh medium plus sodium ascorbate (50 μg/ml) for 24 hrs. The cells were then washed with phosphate-buffered saline (PBS) and placed on serum-free medium containing sodium ascorbate, 0.5% ethanol and 50 μM OGP. Controls included cells placed in the same medium, without OGP. After 24 hrs incubation of the experimental and control cells, media were collected, centrifuged, and the proteins were denatured by SDS and heat, and stored at −20° C. for immunoblotting analyses. The cell layers were washed with PBS, dissolved in SDS sample buffer, centrifuged and stored at −20° C. until use.
The relative amount of pro-collagen secreted into the medium was determined by immunoblotting with an antibody directed to the C-terminal telopeptide of the α1(I) collagen chain, followed by enhanced chemiluminescence detection and densitometry (Shalitin N, Schlesinger H, Levy, M J, Kessler E, Kessler-Icekson G. Expression of procollagen C-proteinase enhancer in cultured rat heart fibroblasts: Evidence for co-regulation with type I collagen, J. Cell. Biochem. 90:397-407, 2003). Protein concentrations in the cell lysates were determined using the Lowry method and served for standardization. The relative Optical Density of the band corresponding to the (I) chain of pro-collagen was divided by the amount of protein and was expressed as D/P (i.e. band intensity per 1 μg protein). […] FIG. 2 presents the relative amounts of the produced and secreted pro-collagen in the OGP-treated culture compared to the control.

| Compound | solubility ([1]; ethanol) | solubility ([1]; water) | pro-collagen synthesis/secretion ([2]; 50 μM OGP, 24 hrs) | pro-collagen synthesis/secretion ([2]; 50 μM OGP, 24 hrs, listed as Oct-GP) | increase of pro-collagen synthesis and secretion (factor vs control) ([2]; 50 μM OGP, 24 hrs, densitometry of control lanes 3 and 4, standardized to protein contents) | relative amounts of pro-collagen produced and secreted into the medium (D/P ratio) ([2]; Oct-GP-treated culture vs control, densitometry standardized by protein, FIG. 2) |
| --- | --- | --- | --- | --- | --- | --- |
| NC(=O)c1cccnc1 [nicotinamide] | 1 g/1.5 ml | 1 g/mL (≈ 8190 mM) |  |  |  |  |
| N-octanoyl-Gly-Pro [OGP] |  |  | greatly enhanced pro-collagen synthesis | stimulates pro-collagen synthesis/secretion | ≥ 8.3 | higher than those of the control |
